pIC50: −log10 of the molar value.
Target: T1, human P2X4 (Homo sapiens, UniProt Q99571)
T1 sequence (Q99571 1-388): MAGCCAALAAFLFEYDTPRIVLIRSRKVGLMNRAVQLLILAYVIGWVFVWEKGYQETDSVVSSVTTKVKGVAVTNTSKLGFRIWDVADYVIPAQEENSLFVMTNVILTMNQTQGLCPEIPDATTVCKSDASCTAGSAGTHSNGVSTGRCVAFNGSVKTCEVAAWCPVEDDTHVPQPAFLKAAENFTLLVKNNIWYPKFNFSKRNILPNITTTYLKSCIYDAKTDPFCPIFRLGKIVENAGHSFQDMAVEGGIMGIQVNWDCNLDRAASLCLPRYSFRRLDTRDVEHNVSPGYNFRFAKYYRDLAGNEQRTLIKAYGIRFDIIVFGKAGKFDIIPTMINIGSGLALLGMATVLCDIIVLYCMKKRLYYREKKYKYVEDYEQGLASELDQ
Assay: Human P2X4 HEK Cell FLIPR Assay
Assay type: cell-based
Conditions: agonist Bz-ATP at EC80; for Emax: HEK293, HEK293 cells, percentage of maximal inhibition, read-out: Human P2X4 HEK Cells (FLIPR Assay) avg Efficacy [%]; for pIC50: HEK293 cells, individual values listed where some fall outside detection range
How it was run: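 HEK293 cells stably expressing human P2X4, Fluo8-AM loaded 30 min at 37° C, then compound 30 min at room temperature (0.5% DMSO, pH 7.4 buffer with 1.8 mM CaCl2). Bz-ATP at its daily-determined EC80 added; calcium fluorescence read over 120 sec; IC50 from peak RFU normalized to agonist control, triplicates.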

Emax | pIC50 | SMILES
53% | 6.46 | NS(=O)(=O)c1cc(NC(=O)Cc2ccc(F)c(F)c2)ccc1-n1cc(C(F)(F)F)cn1 [Example 118, 2-(3,4-Difluorophenyl)-N-{3-sulfamoyl-4-[4-(trifluoromethyl)-1H-pyrazol-1-yl]phenyl}-acetamide]
55% | 6.57 | NS(=O)(=O)c1cc(NC(=O)Cc2ccc(F)cc2)ccc1-n1cc(C(F)(F)F)cn1 [Example 119, 2-(4-Fluorophenyl)-N-{3-sulfamoyl-4-[4-(trifluoromethyl)-1H-pyrazol-1-yl]phenyl}-acetamide]
31% | < 4.60 | NS(=O)(=O)c1cc(NC(=O)Cc2cccc(Cl)c2)ccc1-n1cc(C(F)(F)F)cn1 [Example 120, 2-(3-Chlorophenyl)-N-{3-sulfamoyl-4-[4-(trifluoromethyl)-1H-pyrazol-1-yl]phenyl}-acetamide]
70% | 6.53 | COc1ccc(CC(=O)Nc2ccc(-n3cc(C(F)(F)F)cn3)c(S(N)(=O)=O)c2)cc1 [Example 121, 2-(4-Methoxyphenyl)-N-{3-sulfamoyl-4-[4-(trifluoromethyl)-1H-pyrazol-1-yl]phenyl}-acetamide]
88% | 6.58 | NS(=O)(=O)c1cc(NC(=O)Cc2cccc(F)c2F)ccc1-n1cc(C(F)(F)F)cn1 [Example 122, 2-(2,3-Difluorophenyl)-N-{3-sulfamoyl-4-[4-(trifluoromethyl)-1H-pyrazol-1-yl]phenyl}-acetamide]
79% | 6.96 | Cc1ccccc1CC(=O)Nc1ccc(-n2cc(C(F)(F)F)cn2)c(S(N)(=O)=O)c1 [Example 123, 2-(2-Methylphenyl)-N-{3-sulfamoyl-4-[4-(trifluoromethyl)-1H-pyrazol-1-yl]phenyl}-acetamide]
62% | 6.78 | Cc1cccc(CC(=O)Nc2ccc(-n3cc(C(F)(F)F)cn3)c(S(N)(=O)=O)c2)c1 [Example 124, 2-(3-Methylphenyl)-N-{3-sulfamoyl-4-[4-(trifluoromethyl)-1H-pyrazol-1-yl]phenyl}-acetamide]
86% | 6.53 | NS(=O)(=O)c1cc(NC(=O)Cc2ccccc2OC(F)F)ccc1-n1cc(C(F)(F)F)cn1 [Example 125, 2-[2-(Difluoromethoxy)phenyl]-N-{3-sulfamoyl-4-[4-(trifluoromethyl)-1H-pyrazol-1-yl]phenyl}acetamide]
92% | 5.72 | NS(=O)(=O)c1cc(NC(=O)Cc2cccnc2Cl)ccc1-n1cc(C(F)(F)F)cn1 [Example 126, 2-(2-Chloropyridin-3-yl)-N-{3-sulfamoyl-4-[4-(trifluoromethyl)-1H-pyrazol-1-yl]phenyl}acetamide]
85% | 6.68 | NS(=O)(=O)c1cc(NC(=O)Cc2ccc(F)cc2Cl)ccc1-n1cc(C(F)(F)F)cn1 [Example 127, 2-(2-Chloro-4-fluorophenyl)-N-{3-sulfamoyl-4-[4-(trifluoromethyl)-1H-pyrazol-1-yl]phenyl}acetamide]
91% | 6.97 | Cc1ccc(Cl)c(CC(=O)Nc2ccc(-n3cc(C(F)(F)F)cn3)c(S(N)(=O)=O)c2)c1 [Example 128, 2-(2-Chloro-5-methylphenyl)-N-{3-sulfamoyl-4-[4-(trifluoromethyl)-1H-pyrazol-1-yl]-phenyl}acetamide]
89% | 6.80 | NS(=O)(=O)c1cc(NC(=O)Cc2ccccc2OC(F)(F)F)ccc1-n1cc(C(F)(F)F)cn1 [Example 129, N-{3-Sulfamoyl-4-[4-(trifluoromethyl)-1H-pyrazol-1-yl]phenyl}-2-[2-(trifluoro-methoxy)phenyl]acetamide]
71% | 6.55 | NS(=O)(=O)c1cc(NC(=O)Cc2cc(F)c(F)cc2Cl)ccc1-n1cc(C(F)(F)F)cn1 [Example 130, 2-(2-Chloro-4,5-difluorophenyl)-N-{3-sulfamoyl-4-[4-(trifluoromethyl)-1H-pyrazol-1-yl]phenyl}acetamide]
58% | 6.81 | NS(=O)(=O)c1cc(NC(=O)Cc2cccc(C(F)(F)F)c2Cl)ccc1-n1cc(C(F)(F)F)cn1 [Example 131, 2-[2-Chloro-3-(trifluoromethyl)phenyl]-N-{3-sulfamoyl-4-[4-(trifluoromethyl)-1H-pyrazol-1-yl]phenyl}acetamide]
62% | 7.10 | Cc1ccc(F)c(CC(=O)Nc2ccc(-n3cc(C(F)(F)F)cn3)c(S(N)(=O)=O)c2)c1Cl [Example 132, 2-(2-Chloro-6-fluoro-3-methylphenyl)-N-{3-sulfamoyl-4-[4-(trifluoromethyl)-1H-pyrazol-1-yl]phenyl}acetamide]
82% | 6.97 | NS(=O)(=O)c1cc(NC(=O)Cc2c(F)ccc(F)c2Cl)ccc1-n1cc(C(F)(F)F)cn1 [Example 133, 2-(2-Chloro-3,6-difluorophenyl)-N-{3-sulfamoyl-4-[4-(trifluoromethyl)-1H-pyrazol-1-yl]phenyl}acetamide]
89% | 6.83 | NS(=O)(=O)c1cc(NC(=O)Cc2c(Cl)cccc2C(F)(F)F)ccc1-n1cc(C(F)(F)F)cn1 [Example 134, 2-[2-Chloro-6-(trifluoromethyl)phenyl]-N-{3-sulfamoyl-4-[4-(trifluoromethyl)-1H-pyrazol-1-yl]phenyl}acetamide]
90% | 7.14 | COc1ccc(CC(=O)Nc2ccc(-n3cc(C(F)(F)F)cn3)c(S(N)(=O)=O)c2)c(Cl)c1 [Example 135, 2-(2-Chloro-4-methoxyphenyl)-N-{3-sulfamoyl-4-[4-(trifluoromethyl)-1H-pyrazol-1-yl]phenyl}acetamide]
84% | 6.68 | NS(=O)(=O)c1cc(NC(=O)Cc2cc(Cl)ccc2Cl)ccc1-n1cc(C(F)(F)F)cn1 [Example 136, 2-(2,5-Dichlorophenyl)-N-{3-sulfamoyl-4-[4-(trifluoromethyl)-1H-pyrazol-1-yl]phenyl}-acetamide]
89% | 5.93 | CC(C)c1ccccc1CC(=O)Nc1ccc(-n2cc(C(F)(F)F)cn2)c(S(N)(=O)=O)c1 [Example 137, 2-(2-Isopropylphenyl)-N-{3-sulfamoyl-4-[4-(trifluoromethyl)-1H-pyrazol-1-yl]phenyl}-acetamide]
100% | 6.62 | COc1ccc(Cl)c(CC(=O)Nc2ccc(-n3cc(C(F)(F)F)cn3)c(S(N)(=O)=O)c2)c1 [Example 138, 2-(2-Chloro-5-methoxyphenyl)-N-{3-sulfamoyl-4-[4-(trifluoromethyl)-1H-pyrazol-1-yl]phenyl}acetamide]
100% | 6.97 | NS(=O)(=O)c1cc(NC(=O)Cc2cc(F)ccc2Cl)ccc1-n1cc(C(F)(F)F)cn1 [Example 139, 2-(2-Chloro-5-fluorophenyl)-N-{3-sulfamoyl-4-[4-(trifluoromethyl)-1H-pyrazol-1-yl]phenyl}acetamide]
92% | 7.11 | NS(=O)(=O)c1cc(NC(=O)Cc2ccccc2C(F)(F)F)ccc1-n1cc(F)cn1 [Example 140, N-[4-(4-Fluoro-1H-pyrazol-1-yl)-3-sulfamoylphenyl]-2-[2-(trifluoromethyl)phenyl]-acetamide]
96% | 6.20 | Cc1cc(F)c(Br)cc1CC(=O)Nc1ccc(-n2cc(C(F)(F)F)cn2)c(S(N)(=O)=O)c1 [Example 141, 2-(5-Bromo-4-fluoro-2-methylphenyl)-N-{3-sulfamoyl-4-[4-(trifluoromethyl)-1H-pyrazol-1-yl]phenyl}acetamide]
